Tests used:
CYP1A1 mRNA expression = assay: RNA blot of CYP1A1 mRNA expression in mouse hepatoma cells exposed to TCDD; assay type: cell-based
Description: (§1) (A) RNA blot (30 μg total RNA) showing mRNA expression in mouse hepatoma cells of TFF2, CYP1A1 and the housekeeping gene GAPDH after exposure to increasing concentrations of TCDD. Mouse hepatoma cells were cultured in 6 cm petri dishes and exposed to TCDD dissolved in dimethyl sulfoxid (DMSO, 0.1% total volume) at concentrations indicated in the figure, or vehicle alone (“0 nM”) for 24 hours before cell harvest and RNA isolation. The band intensity of TFF2 (B) and CYP1A1 (C) was measured by Phosphor Imager analysis and normalized against expression of GAPDH. The numbers represent the fold increase of TFF2 and CYP1A1 mRNA expression compared to the corresponding vehicle-treated control.
(§2) (A) RNA blot (30 μg total RNA) showing mRNA expression in mouse hepatoma cells of TFF2, CYP1A1 and the housekeeping gene GAPDH after exposure to TCDD at increasing length of time. […] The band intensity of TFF2 (B) and CYP1A1 (C) was measured by Phosphor Imager analysis and normalized against expression of GAPDH. […]
(§3) The glandular part of mouse stomachs was removed and snap-frozen in liquid nitrogen. […] The filters were hybridized with specific 32P-labeled cDNA fragments and exposed to autoradiographic film and band intensity was quantified by Phosphoimager analysis (Fuji).

TFF2 mRNA expression = assay: RNA blot of TFF2 mRNA expression in mouse hepatoma cells exposed to TCDD; assay type: cell-based
Description: as §1, §2, §3

[1] = 10 nM TCDD, increasing length of time, vs vehicle
[2] = increasing concentrations of TCDD, 24 hours, vs vehicle (DMSO)

Clc1cc2c(cc1Cl)Oc1cc(Cl)c(Cl)cc1O2 [TCDD, 2,3,7,8-tetrachlorodibenzo-p-dioxin]
CYP1A1 mRNA expression normalized against GAPDH (CYP1A1 mRNA expression; [1]): time-dependent increase
CYP1A1 mRNA expression normalized against GAPDH (CYP1A1 mRNA expression; [2]): concentration-dependent increase
TFF2 mRNA expression normalized against GAPDH (TFF2 mRNA expression; [1]): time-dependent increase
TFF2 mRNA expression normalized against GAPDH (TFF2 mRNA expression; [2]): concentration-dependent increase
